These are literature values, as cited in patent publication US9326976B2, “Carbamate derivatives” (CHIESI FARMACEUTICI S.P.A., priority 2014, dated 2016).

The test system of the data set is COPD patients.
Where [1] appears, read: patients with severe disease, frequent exacerbations and mucus hypersecretion.

Turning to `O=C(Nc1c(Cl)cncc1Cl)c1ccc(OC(F)F)c(OCC2CC2)c1` [roflumilast], where the note is “COPD patients, oral, given over 4 weeks”, the “reduction of the numbers of neutrophils in sputum” value was 36%. Under setting [1], the “improvement of FEV 1” value is on record as “approximately 50 mL” and the reduction of exacerbation entry is listed as “about 15%”.
